Assay results taken from ChEMBL document CHEMBL5537177, “Discovery of Potent Antimalarial Type II Kinase Inhibitors with Selectivity over Human Kinases” (J Med Chem, 2024).

Tested on: HepG2
Test: Cytotoxicity against human HepG2 cells assessed as reduction in cell viability incubated for 48 hrs by MTS assay
Type: toxicity, cell-based
Settings: hepg2
Work on `CCN1CCN(Cc2ccc(NC(=O)c3cc(Cl)cc(NC(=O)c4cncc(-c5cccs5)c4)c3)cc2)CC1` yielded an EC50 of 8770 nM.
`CCN1CCN(Cc2ccc(NC(=O)c3cc(Cl)cc(C(=O)Nc4cncc(-c5cccs5)c4)c3)cc2C(F)(F)F)CC1` showed an EC50 of 4240 nM.
`CCN1CCN(Cc2ccc(NC(=O)c3cc(Cl)cc(NC(=O)c4cncc(-c5ccco5)c4)c3)cc2C(F)(F)F)CC1` showed an EC50 of 5410 nM.
Compound `CCN1CCN(Cc2ccc(NC(=O)c3cc(NC(=O)c4cncc(-c5cccs5)c4)ccc3F)cc2C(F)(F)F)CC1` has an EC50 of 6710 nM.
With `CCN1CCN(Cc2ccc(NC(=O)c3cc(NC(=O)c4cncc(-c5cccs5)c4)c(C)cc3F)cc2C(F)(F)F)CC1` the EC50 was 4050 nM.

Tested on: not listed separately
Test: Selectivity index, ratio of EC50 for human MCF7 cells to EC50 for multidrug-resistant Plasmodium falciparum Dd2 at ring stage infected in A+ erythrocytes
Type: toxicity, cell-based
Settings: read-out: Ratio EC50
`CCN1CCN(Cc2ccc(NC(=O)c3cc(Cl)cc(NC(=O)c4cncc(-c5cccs5)c4)c3)cc2)CC1` showed a selectivity ratio of 127.
`CCN1CCN(Cc2ccc(NC(=O)c3cc(Cl)cc(C(=O)Nc4cncc(-c5cccs5)c4)c3)cc2C(F)(F)F)CC1` showed a selectivity ratio of 49.
With `CCN1CCN(Cc2ccc(NC(=O)c3cc(Cl)cc(NC(=O)c4cncc(-c5ccco5)c4)c3)cc2C(F)(F)F)CC1` the selectivity ratio was 127.
`CCN1CCN(Cc2ccc(NC(=O)c3cc(NC(=O)c4cncc(-c5cccs5)c4)ccc3F)cc2C(F)(F)F)CC1` gave a selectivity ratio of 11.
Compound `CCN1CCN(Cc2ccc(NC(=O)c3cc(NC(=O)c4cncc(-c5cccs5)c4)c(C)cc3F)cc2C(F)(F)F)CC1` has a selectivity ratio of 4.4.

Tested on: not listed separately
Test: Metabolic stability in mouse liver microsomes assessed as half life
Type: ADME, Liver cells
Settings: not given
`CCN1CCN(Cc2ccc(NC(=O)c3cc(Cl)cc(NC(=O)c4cncc(-c5cccs5)c4)c3)cc2)CC1` showed a t1/2 of 1.09 h.
For `CCN1CCN(Cc2ccc(NC(=O)c3cc(Cl)cc(NC(=O)c4cncc(-c5ccco5)c4)c3)cc2C(F)(F)F)CC1`, the t1/2 was 0.968 h.

Tested on: Plasmodium falciparum
Test: Resistance index, ratio of EC50 for multidrug-resistant Plasmodium falciparum Dd2 at ring stage infected in A+ erythrocytes to EC50 for drug-sensitive Plasmodium falciparum 3D7 at ring stage infected in A+ erythrocytes
Type: organism-based
Settings: human
In the case of `CCN1CCN(Cc2ccc(NC(=O)c3cc(Cl)cc(NC(=O)c4cncc(-c5cccs5)c4)c3)cc2)CC1`, the “Ratio EC50” value is reported as 1.1.
In the case of `CCN1CCN(Cc2ccc(NC(=O)c3cc(Cl)cc(C(=O)Nc4cncc(-c5cccs5)c4)c3)cc2C(F)(F)F)CC1`, the “Ratio EC50” value is reported as 1.3.
With `CCN1CCN(Cc2ccc(NC(=O)c3cc(Cl)cc(NC(=O)c4cncc(-c5ccco5)c4)c3)cc2C(F)(F)F)CC1` the “Ratio EC50” value was 0.9.
In the case of `CCN1CCN(Cc2ccc(NC(=O)c3cc(NC(=O)c4cncc(-c5cccs5)c4)ccc3F)cc2C(F)(F)F)CC1`, the “Ratio EC50” value is reported as 2.
With `CCN1CCN(Cc2ccc(NC(=O)c3cc(NC(=O)c4cncc(-c5cccs5)c4)c(C)cc3F)cc2C(F)(F)F)CC1` the “Ratio EC50” value was 1.1.

Tested on: Plasmodium falciparum
Test: Antiplasmodial activity against drug-sensitive Plasmodium falciparum 3D7 at ring stage infected in A+ erythrocytes assessed as parasite growth reduction incubated for 72 hrs by SYBR Green I dye based analysis
Type: functional, organism-based
Settings: 3D7, Erythrocyte
`CCN1CCN(Cc2ccc(NC(=O)c3cc(Cl)cc(NC(=O)c4cncc(-c5cccs5)c4)c3)cc2)CC1` showed an EC50 of 76 nM.
In the case of `CCN1CCN(Cc2ccc(NC(=O)c3cc(Cl)cc(C(=O)Nc4cncc(-c5cccs5)c4)c3)cc2C(F)(F)F)CC1`, the EC50 is reported as 82 nM.
Work on `CCN1CCN(Cc2ccc(NC(=O)c3cc(Cl)cc(NC(=O)c4cncc(-c5ccco5)c4)c3)cc2C(F)(F)F)CC1` yielded an EC50 of 58 nM.
Compound `CCN1CCN(Cc2ccc(NC(=O)c3cc(NC(=O)c4cncc(-c5cccs5)c4)ccc3F)cc2C(F)(F)F)CC1` has an EC50 of 491 nM.
In the case of `CCN1CCN(Cc2ccc(NC(=O)c3cc(NC(=O)c4cncc(-c5cccs5)c4)c(C)cc3F)cc2C(F)(F)F)CC1`, the EC50 is reported as 1460 nM.

Tested on: Plasmodium falciparum
Test: Antimalarial activity against Plasmodium falciparum harboring PI4K S1320L mutation assessed as reduction in parasitemia incubated for 72 hrs by SYBR green I dye based analysis
Type: functional, organism-based
Settings: not given
For `CNC(=O)c1ccc(-c2cnc3cnc(C(=O)N(C)c4ccc(Cl)cc4)cn23)cc1`, the EC50 was 67.6 nM.
Work on `O=C(NNC(=O)c1csnn1)c1ccc(Cl)cc1` yielded an EC50 of 106 nM.
`C[C@@H]1CC[C@H]2[C@@H](C)C(=O)O[C@@H]3O[C@@]4(C)CC[C@@H]1[C@]32OO4` [ARTEMISININ] showed an EC50 of 5.2 nM.

Tested on: Plasmodium falciparum
Test: Antimalarial activity against Plasmodium falciparum harboring CARL I1139K mutation assessed as reduction in parasitemia incubated for 72 hrs by SYBR green I dye based analysis
Type: functional, organism-based
Settings: not given
With `CNC(=O)c1ccc(-c2cnc3cnc(C(=O)N(C)c4ccc(Cl)cc4)cn23)cc1` the EC50 was 9.8 nM.
With `O=C(NNC(=O)c1csnn1)c1ccc(Cl)cc1` the EC50 was 174 nM.
Work on `C[C@@H]1CC[C@H]2[C@@H](C)C(=O)O[C@@H]3O[C@@]4(C)CC[C@@H]1[C@]32OO4` [ARTEMISININ] yielded an EC50 of 4 nM.

Tested on: MCF7
Test: Cytotoxicity against human MCF7 cells assessed as reduction in cell viability incubated for 48 hrs by MTS assay
Type: toxicity, cell-based
Settings: mcf7
Compound `CCN1CCN(Cc2ccc(NC(=O)c3cc(Cl)cc(NC(=O)c4cncc(-c5cccs5)c4)c3)cc2)CC1` has an EC50 of 10300 nM.
`CCN1CCN(Cc2ccc(NC(=O)c3cc(Cl)cc(C(=O)Nc4cncc(-c5cccs5)c4)c3)cc2C(F)(F)F)CC1` showed an EC50 of 5360 nM.
Work on `CCN1CCN(Cc2ccc(NC(=O)c3cc(Cl)cc(NC(=O)c4cncc(-c5ccco5)c4)c3)cc2C(F)(F)F)CC1` yielded an EC50 of 6490 nM.
With `CCN1CCN(Cc2ccc(NC(=O)c3cc(NC(=O)c4cncc(-c5cccs5)c4)ccc3F)cc2C(F)(F)F)CC1` the EC50 was 10800 nM.
`CCN1CCN(Cc2ccc(NC(=O)c3cc(NC(=O)c4cncc(-c5cccs5)c4)c(C)cc3F)cc2C(F)(F)F)CC1` gave an EC50 of 6910 nM.

Tested on: Plasmodium falciparum
Test: microbe, parasite or virus in culture
Settings: Dd2, 72 h
Description: Antimalarial activity against wild-type Plasmodium falciparum Dd2 assessed as reduction in parasitemia incubated for 72 hrs by SYBR green I dye based analysis
`CNC(=O)c1ccc(-c2cnc3cnc(C(=O)N(C)c4ccc(Cl)cc4)cn23)cc1` showed an EC50 of 6 nM.
With `O=C(NNC(=O)c1csnn1)c1ccc(Cl)cc1` the EC50 was 182 nM.
Compound `C[C@@H]1CC[C@H]2[C@@H](C)C(=O)O[C@@H]3O[C@@]4(C)CC[C@@H]1[C@]32OO4` [ARTEMISININ] has an EC50 of 2.9 nM.

Tested on: not listed separately
Test: Metabolic stability in mouse liver microsomes assessed as intrinsic clearance
Type: ADME, Liver cells
Settings: not given
In the case of `CCN1CCN(Cc2ccc(NC(=O)c3cc(Cl)cc(NC(=O)c4cncc(-c5cccs5)c4)c3)cc2)CC1`, the intrinsic clearance is reported as 11 µL/min/mg.
`CCN1CCN(Cc2ccc(NC(=O)c3cc(Cl)cc(NC(=O)c4cncc(-c5ccco5)c4)c3)cc2C(F)(F)F)CC1` gave an intrinsic clearance of 12 µL/min/mg.

Tested on: Plasmodium falciparum
Test: Antimalarial activity against Plasmodium falciparum harboring AcAS A597V mutation assessed as reduction in parasitemia incubated for 72 hrs by SYBR green I dye based analysis
Type: functional, organism-based
Settings: not given
Compound `CNC(=O)c1ccc(-c2cnc3cnc(C(=O)N(C)c4ccc(Cl)cc4)cn23)cc1` has an EC50 of 4.2 nM.
For `O=C(NNC(=O)c1csnn1)c1ccc(Cl)cc1`, the EC50 was > 50000 nM.
Compound `C[C@@H]1CC[C@H]2[C@@H](C)C(=O)O[C@@H]3O[C@@]4(C)CC[C@@H]1[C@]32OO4` [ARTEMISININ] has an EC50 of 5.1 nM.

Tested on: not listed separately
Test: Selectivity index, ratio of EC50 for human HepG2 cells to EC50 for multidrug-resistant Plasmodium falciparum Dd2 at ring stage infected in A+ erythrocytes
Type: toxicity, cell-based
Settings: read-out: Ratio EC50
Compound `CCN1CCN(Cc2ccc(NC(=O)c3cc(Cl)cc(NC(=O)c4cncc(-c5cccs5)c4)c3)cc2)CC1` has a selectivity ratio of 108.
`CCN1CCN(Cc2ccc(NC(=O)c3cc(Cl)cc(C(=O)Nc4cncc(-c5cccs5)c4)c3)cc2C(F)(F)F)CC1` gave a selectivity ratio of 39.
In the case of `CCN1CCN(Cc2ccc(NC(=O)c3cc(Cl)cc(NC(=O)c4cncc(-c5ccco5)c4)c3)cc2C(F)(F)F)CC1`, the selectivity ratio is reported as 106.
In the case of `CCN1CCN(Cc2ccc(NC(=O)c3cc(NC(=O)c4cncc(-c5cccs5)c4)ccc3F)cc2C(F)(F)F)CC1`, the selectivity ratio is reported as 6.8.
Compound `CCN1CCN(Cc2ccc(NC(=O)c3cc(NC(=O)c4cncc(-c5cccs5)c4)c(C)cc3F)cc2C(F)(F)F)CC1` has a selectivity ratio of 2.6.

Tested on: Plasmodium falciparum
Test: Antiplasmodial activity against multidrug-resistant Plasmodium falciparum Dd2 at ring stage infected in A+ erythrocytes assessed as parasite growth reduction incubated for 72 hrs by SYBR Green I dye based analysis
Type: functional, organism-based
Settings: Dd2, Erythrocyte
`CCN1CCN(Cc2ccc(NC(=O)c3cc(Cl)cc(NC(=O)c4cncc(-c5cccs5)c4)c3)cc2)CC1` gave an EC50 of 81 nM.
For `CCN1CCN(Cc2ccc(NC(=O)c3cc(Cl)cc(C(=O)Nc4cncc(-c5cccs5)c4)c3)cc2C(F)(F)F)CC1`, the EC50 was 109 nM.
In the case of `CCN1CCN(Cc2ccc(NC(=O)c3cc(Cl)cc(NC(=O)c4cncc(-c5ccco5)c4)c3)cc2C(F)(F)F)CC1`, the EC50 is reported as 51 nM.
Work on `CCN1CCN(Cc2ccc(NC(=O)c3cc(NC(=O)c4cncc(-c5cccs5)c4)ccc3F)cc2C(F)(F)F)CC1` yielded an EC50 of 981 nM.
With `CCN1CCN(Cc2ccc(NC(=O)c3cc(NC(=O)c4cncc(-c5cccs5)c4)c(C)cc3F)cc2C(F)(F)F)CC1` the EC50 was 1580 nM.
